Source: a melting point compilation (Tetko et al.; mined from patent text by program, amines drawn as free bases though some values may be those of a salt)

| melting point [°C] | SMILES |
| --- | --- |
| 140 to 142 | CC(C)(C)c1ccc(C[C@@H](NC(=O)c2cccc3c2C=CCCC3)[C@@H](O)c2ccc(F)cc2)cc1 (racemic) |
| 208 to 209 | COc1ccc(CNc2nc(OCc3ccccn3)ncc2C(N)=O)cc1Cl |
| 257 to 259 | O=C1OC2(CCN(C(=O)Nc3cnc(-c4cccc(O)c4)cn3)CC2)c2ccccc21 |
| 264 to 266 | Cc1cc2c(c3c(=O)cc(C(=O)O)oc13)OC(C)(C)c1cc(S(=O)(=O)O)ccc1-2 |
| 230 | CCOC(=O)N(N=c1[nH]c(SC)nc2ccc(C)cc12)c1ccccc1 |
| 177 to 183 | O=C(O)CN1C(=O)COc2cc(F)c([N+](=O)[O-])cc21 |
| > 200 | CNn1c(C)nc(N2CCc3ccccc3CC2)c(C#N)c1=O |
| 212 to 215 | Cc1ccc(-c2cc(Br)c3[nH]c(=O)ccc3c2)c(C)n1 |
| 183 to 185 | CCc1cccc2c1C(=O)NS2(=O)=O |
| 178 to 180 | CC(C)(C)c1cc(C(=O)c2ccc([N+](=O)[O-])cc2)cc(C(C)(C)C)c1O |
| 220 to 223 | c1ccc2c(c1)CN(NC1=NCCO1)C2 |
| 165 to 166 | CCCC1=C(c2ccc(F)cc2)C(=NO)CC1 |
| 128 to 130 | CCN1c2ncc(CSc3ncnc4[nH]ncc34)cc2C(=O)N(C)c2ccc(Cl)nc21 |
| 182 to 184 | CCCc1nc2c(N)nc3ccccc3c2n1CCCC(C)N(OC)C(=O)NC1CCCC1 (configuration not stated) |
| 238 to 240 | Clc1cccc2c1c(Cl)nc1c(-c3nc(C4CC4)no3)ncn12 |
| 205 to 207 | O=c1[nH]c(=O)n2c3c(cccc13)CCC2CO (configuration not stated) |
| 178 to 181 | O=C(Nc1cccc(C(F)(F)F)c1)c1cccc2cc(Oc3cc(CCl)ncn3)ccc12 |
| 136 to 137 | CC(C)(C)c1cccc(C[C@H]2NC(=O)O[C@H]2c2cccc(Cl)c2)c1 (racemic) |
| 82 to 85 | Cc1cc(C#CC2CC2)cc(C)c1Oc1ccc(N)c(Nc2ccc(C#N)cc2)n1 |
| 272 to 273 | COc1cc(OC)c2c(=O)[nH]c(-c3ccc(OCCO)c(-c4cccc(S(C)=O)c4)n3)nc2c1 (configuration not stated) |
| 118 to 119 | CCCCCC(=O)c1cc2c(cc1/C=C/c1ccc(C(=O)O)cc1)C(C)(C)CCC2(C)C |
| 235 | Cc1[nH]c(C=NNC(=O)c2ccc(O)cc2)c(C)c1Br |
| 165 to 167 | CCOC(=O)c1cc(C#N)c(C=O)nc1Nc1ccccc1 |
| 136 to 138 | Cc1cc2c(c(C)c1S(=O)(=O)C[N+](=O)[O-])CCCO2 |
| 180 to 185 | CCN1C(=O)C(C(=O)Nc2cccc(S(C)=O)c2)c2cc3c(cc21)CCO3 (configuration not stated) |
| 125 to 127 | COc1ccc(C2COc3c(ccc(O)c3C)C2)cc1OC (configuration not stated) |
| 80 to 82 | CCOCC1OC(n2cnc3c(NCc4cccc(I)c4)nc(Cl)nc32)C(O)C1O (configuration not stated) |
| 157 to 158 | O=C(O)C1=NN(c2cccc(Cl)c2)C(c2ccccc2)CC1 (configuration not stated) |

More lines, now with the values behind:

| SMILES | melting point [°C] |
| --- | --- |
| Cc1ccc(C(=O)N(C(C)C)C(C)C)c(C(=O)O)c1F | 147 to 149 |
| OCc1cccc(-c2cccc(-c3cn([C@H]4CN5CCC4CC5)nn3)c2)c1 | 201 |
| COc1ccc(-c2cc(CO)c(=O)n(Cc3ccc(Cl)cc3)c2)cc1 | 128 |
| CC(=O)OCCCCCC1CC2=CC(=O)CCC2C2C(F)CC3(C)C(=O)CCC3C12 (configuration not stated) | 78.4 |
| Cc1cc(=O)n(C2CCCCC2)n1C | 99 to 100 |
| Fc1ccc2c(c1F)OCc1csc(=S)n1-2 | 163 to 167 |
| CCCCCCCC1(CCCCCCC)c2cc(Br)ccc2-c2ccc(Br)cc21 | 45 to 46 |
| CC1(C)OCC(Cn2c(=O)sc3c(=O)[nH]c(N)nc32)O1 (configuration not stated) | 222 to 225 |
| Cc1cc2cnnc(OCc3ccc(F)cc3)c2n1Cc1ccccc1 | 127 to 132 |
| CC(=O)OCC1CC(n2c(=S)[nH]c3cc(Cl)c(Cl)cc32)C(OC(C)=O)C1OC(C)=O (configuration not stated) | 208 to 209 |
| CCCCCCCCCCc1ccc(CO)cc1 | 39 to 40 |
| CS(=O)(=O)N1Cc2sccc2C(O)C1 (configuration not stated) | 140 |
| COc1ccc(OCCCN(Cc2cccc(O)c2)c2nc3ccccc3o2)cc1 | 104 |
| COc1cc(COc2cc3ncnc(Nc4ccc(Cl)cc4F)c3cc2OC)ccn1 | 202 to 204 |
| O=C(CCN1CCC(C(O)(c2ccc(F)cc2)c2ccc(F)cc2)CC1)N(c1ccccc1)c1ccccc1 | 160 to 162 |
| Nc1ncnc2c1c(-c1ccc(Oc3ccccc3)cc1)cn2CC(=O)NCCOCCO | 145 to 147 |
| CC(C)(C)C(=O)OC(COc1cccc2[nH]ccc12)CN1CCC(COc2ccccc2)CC1 (configuration not stated) | 103 to 105 |
| CCOC(=O)c1[nH]c2c(c1C)CC1CN(CC)CCC1(c1cccc(O)c1)C2 (configuration not stated) | 195 to 197 |
| CC1=NC(=S)N=C1CCCCNC(=O)c1ccccc1 | 180 to 184 |
| CC(CCCCCOCCc1ccccc1)NCC(O)c1ccc(O)c2[nH]c(=O)ccc12 (configuration not stated) | 134 to 138 |
| COC(=O)CCCCC(O)c1ccc2c(c1)CCCC2 (configuration not stated) | 107 to 108 |
| CCCc1nnc2n1-c1sc(CC)cc1C(c1ccccc1Cl)=NC2NC(=O)c1ccc2ccccc2c1 (configuration not stated) | 226 to 227 |

| SMILES | melting point [°C] |
| --- | --- |
| Cn1ncnc1COc1nn2c(-c3ccc(F)cc3F)nnc2cc1C1(C)CCCCC1 | 196 |
| Cc1cc(O)ccc1-c1ccc(N)cc1 | 156 to 157 |
| COc1ccc(OCC(O)CN2CCC3(CC2)CNC(=O)O3)cc1 (configuration not stated) | 151 to 153 |
| Clc1cncnc1NCc1ccc(OCc2ccccc2)cc1 | 95 to 100 |
| O=C(NCCn1ccccc1=O)c1cccnc1 | 158 to 159 |
| CCOC(=O)COC1CCN(C(=O)[C@H](C)NC(=O)c2ccc(C(N)=NO)cc2)CC1 | 212 to 213 |
| COC(COc1ccc(C(=O)NCC(NC(=O)OCc2ccccc2)C(=O)OC(C)(C)C)cc1)OC (configuration not stated) | 115 |
| CC(C)(C)N1C(=O)c2cc([N+](=O)[O-])c(Cl)nc2C1=O | 100 to 104 |
| Cc1ccc(-n2c(-c3ccccc3)cc(Br)c2-c2ccccc2)cc1 | 201 to 202 |
| COS(=O)(=O)CS(C)(=O)=O | 101 to 104 |
| CC(Oc1ccccc1[N+](=O)[O-])C(=O)NCCO[N+](=O)[O-] (configuration not stated) | 65 to 67 |
| COC(=O)CCCCCCC(C(=O)OC)S(C)(=O)=O (configuration not stated) | 47 to 48 |
| COc1ncc(C(=O)Cc2c(Cl)cncc2Cl)cc1OC1CCCC1 | 118 to 119 |
| CCOC(=O)C(=NC1CCCCC1)c1cccn1C | 35 to 36 |
| CCOC(=O)C1CC2CC(=O)CCC2CN1C(=O)OC (configuration not stated) | 79 to 80 |
| FC(F)(F)Oc1ccc2[nH]c(-c3ccco3)nc2c1 | 165 to 167 |
| O=C(NC(=O)c1c(Cl)cccc1Cl)Nc1noc(-c2ccc(C(F)(F)F)cc2)c1Cl | 237 to 238 |
| CC(C)(Oc1ccc(C#N)cc1)C(O)Cc1cnccn1 (configuration not stated) | 94 to 95 |
| CCc1nc(-c2ccc(OCCC3CCN(c4ccc(C)nn4)CC3)cc2)co1 | 124 |
| COc1ccc(N(C(=O)c2ccc3ccccc3c2)c2ccc(OCc3ccccc3)cc2)cc1 | 175 to 176 |
| COc1cc2c(cc1OC)C(=O)NN(CCCO)C2 | 178 |
| CC(C)c1nc(COCc2ccccc2)n(Cc2cnc3ccccc3c2)c1Sc1cc(Cl)cc(Cl)c1 | 95 to 98 |
